CC50 and IC50 data for 7 compounds are collected here from patent publication US7432260B2, “Pyrimidine compounds” (Cyclacel Limted, priority 2002, dated 2008).

Read-outs that look alike come from different tables or passages of the source. Where only a bound is given, the exact number is not on record here.

Data set [1] can be described thus: Compound cytotoxicity in PBMCs (MTS). The settings on record: human, concentration decreasing cell viability by 50%, read-out: PBMC TC50. It is filed as cell-based. The method, then: Representative compounds of the present invention were tested for antiviral activity against HIV-1 in human peripheral blood mononuclear cells (PBMCs) using the clinical paediatric HIV strain RoJo or WeJo. PBMCs were cultured under conditions which promote cell survival and HIV replication. Antiviral activity was tested for from 6-9 log10 serial dilutions of a 100 μM compound stock solution in DMSO.
Fresh PBMCs, seronegative for HIV and HBV, were isolated from screened donors (Interstate Blood Bank, Inc. Memphis, Term.). Cells were pelleted/washed 2-3 times by low speed centrifugation and re-suspension in PBS to remove contaminating platelets. […] Banded PBMCs were gently aspirated from the resulting interface and subsequently washed with PBS by low speed centrifugation. After the final wash, cells were enumerated by trypan blue exclusion and re-suspended in RPMI 1640 supplemented with fetal bovine serum (FBS), and L-glutamine, Phytohemagglutinin (PHA-P, Sigma). The cells were allowed to incubate at 37° C. After incubation, PBMCs were centrifuged and resuspended in RPMI 1640 with FBS, L-glutamine, penicillin, streptomycin, gentamycin, and recombinant human IL-2 (R&D Systems, Inc). IL-2 is included in the culture medium to maintain the cell division initiated by the PHA mitogenic stimulation. PBMCs were maintained in this with bi-weekly medium changes until used in the assay protocol. Cells were kept in culture for a maximum of two weeks before being deemed too old for use in assays and discarded. Monocytes were depleted from the culture as the result of adherence to the tissue culture flask.
For the standard PBMC assay, PHA-P stimulated cells from at least two normal donors were pooled, diluted and plated in the interior wells of a 96-well round bottom microplate. Pooling of mononuclear cells from more than one donor was used to minimise the variability observed between individual donors, which results from quantitative and qualitative differences in HIV infection and overall response to the PHA and IL-2 of primary lymphocyte populations. Each plate contained virus/cell control wells (cells plus virus), experimental wells (drug plus cells plus virus) and compound control wells (drug plus media […], necessary for MTS monitoring of cytotoxicity). Since HIV-1 is not cytopathic to PBMCs, this allows the use of the same assay plate for both antiviral activity and cytotoxicity measurements. Test drug dilutions were prepared in microtiter tubes and each concentration was placed in appropriate wells using the standard format. A predetermined dilution of virus stock was placed in each test well (final MOI≅0.1). The PBMC cultures were maintained for seven days following infection at 37° C., 5% CO2. After this period, cell-free supernatant samples were collected for analysis of reverse transcriptase activity and/or HIV p24 content. Following removal of supernatant samples, compound cytotoxicity was measured by addition of MTS to the plates for determination of cell viability. Wells were also examined microscopically and any abnormalities were noted.

The target of data set [2] is CaMKII (calmodulin-depependent kinase II). Briefly: Kinase assay CaMKII. The data set is classed as biochemical. The settings on record: Table 3 selectivity panel; read-out: Kinase specificity IC50 CaMKII. The procedure: (§1) Kinase assays. […] This was achieved by measurement of incorporation of radioactive phosphate from ATP into appropriate polypeptide substrates. Recombinant protein kinases and kinase complexes were produced or obtained commercially. Assays were performed using 96-well plates and appropriate assay buffers (typically 25 mM β-glycerophosphate, 20 mM MOPS, 5 mM EGTA, 1 mM DTT, 1 mM […], pH 7.4), into which were added 2-4 μg of active enzyme with appropriate substrates. The reactions were initiated by addition of Mg/ATP mix (15 mM MgCl2+100 μM ATP with 30-50 kBq per well of [γ-^32P]-ATP) and mixtures incubated as required at 30° C. Reactions were stopped on ice, followed by filtration through p81 filterplates or GF/C filterplates (Whatman Polyfiltronics, Kent, UK). After washing 3 times with 75 mM aq orthophosphoric acid, plates were dried, scintillant added and incorporated radioactivity measured in a scintillation counter (TopCount, Packard Instruments, Pangbourne, Berks, UK). Compounds for kinase assay were made-up as 10 mM stocks in DMSO and diluted into 10% DMSO inrassay buffer.

For data set [3], the target named is Akt/PKB (protein kinase B) (Homo sapiens, UniProt P31749). Briefly: Kinase assay Akt/PKB. It is filed as biochemical. The settings on record: Table 3 selectivity panel; read-out: Kinase specificity IC50 Akt/PKB. The method, then:
as §1

For data set [4], the target named is p70 ribosomal protein S6 kinase (Homo sapiens, UniProt P23443). Briefly: Kinase assay p70/S6. The data set is classed as biochemical. The settings on record: Table 3 selectivity panel; read-out: Kinase specificity IC50 p70/S6. The method, then:
as §1

The target of data set [5] is ERK2 (extracellular-signal-regulated kinase 2) (Homo sapiens, UniProt P28482). The data set can be described thus: Kinase assay ERK2. To be noted: Table 3 selectivity panel; read-out: Kinase specificity IC50 ERK2. It is filed as biochemical. The procedure: as §1
Sequence of ERK2 (extracellular-signal-regulated kinase 2) (P28482 whole entry, species assumed): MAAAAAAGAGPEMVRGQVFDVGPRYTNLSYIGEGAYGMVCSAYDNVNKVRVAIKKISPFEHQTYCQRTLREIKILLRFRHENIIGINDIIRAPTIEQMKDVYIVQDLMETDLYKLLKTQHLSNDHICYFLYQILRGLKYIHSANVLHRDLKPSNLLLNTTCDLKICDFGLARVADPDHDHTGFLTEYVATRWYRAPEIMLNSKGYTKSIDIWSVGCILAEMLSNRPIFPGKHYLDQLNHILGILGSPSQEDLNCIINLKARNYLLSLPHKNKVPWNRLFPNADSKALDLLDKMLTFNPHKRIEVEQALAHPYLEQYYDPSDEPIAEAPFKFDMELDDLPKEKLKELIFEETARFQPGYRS
The target of data set [6] is Abl (Ableson tyrosine kinase) (Homo sapiens, UniProt P00519). The data set can be described thus: Kinase assay Abl. The data set is classed as biochemical. The settings on record: Table 3 selectivity panel; read-out: Kinase specificity IC50 Abl. The procedure: as §1
Sequence of Abl (Ableson tyrosine kinase) (P00519 whole entry, species assumed): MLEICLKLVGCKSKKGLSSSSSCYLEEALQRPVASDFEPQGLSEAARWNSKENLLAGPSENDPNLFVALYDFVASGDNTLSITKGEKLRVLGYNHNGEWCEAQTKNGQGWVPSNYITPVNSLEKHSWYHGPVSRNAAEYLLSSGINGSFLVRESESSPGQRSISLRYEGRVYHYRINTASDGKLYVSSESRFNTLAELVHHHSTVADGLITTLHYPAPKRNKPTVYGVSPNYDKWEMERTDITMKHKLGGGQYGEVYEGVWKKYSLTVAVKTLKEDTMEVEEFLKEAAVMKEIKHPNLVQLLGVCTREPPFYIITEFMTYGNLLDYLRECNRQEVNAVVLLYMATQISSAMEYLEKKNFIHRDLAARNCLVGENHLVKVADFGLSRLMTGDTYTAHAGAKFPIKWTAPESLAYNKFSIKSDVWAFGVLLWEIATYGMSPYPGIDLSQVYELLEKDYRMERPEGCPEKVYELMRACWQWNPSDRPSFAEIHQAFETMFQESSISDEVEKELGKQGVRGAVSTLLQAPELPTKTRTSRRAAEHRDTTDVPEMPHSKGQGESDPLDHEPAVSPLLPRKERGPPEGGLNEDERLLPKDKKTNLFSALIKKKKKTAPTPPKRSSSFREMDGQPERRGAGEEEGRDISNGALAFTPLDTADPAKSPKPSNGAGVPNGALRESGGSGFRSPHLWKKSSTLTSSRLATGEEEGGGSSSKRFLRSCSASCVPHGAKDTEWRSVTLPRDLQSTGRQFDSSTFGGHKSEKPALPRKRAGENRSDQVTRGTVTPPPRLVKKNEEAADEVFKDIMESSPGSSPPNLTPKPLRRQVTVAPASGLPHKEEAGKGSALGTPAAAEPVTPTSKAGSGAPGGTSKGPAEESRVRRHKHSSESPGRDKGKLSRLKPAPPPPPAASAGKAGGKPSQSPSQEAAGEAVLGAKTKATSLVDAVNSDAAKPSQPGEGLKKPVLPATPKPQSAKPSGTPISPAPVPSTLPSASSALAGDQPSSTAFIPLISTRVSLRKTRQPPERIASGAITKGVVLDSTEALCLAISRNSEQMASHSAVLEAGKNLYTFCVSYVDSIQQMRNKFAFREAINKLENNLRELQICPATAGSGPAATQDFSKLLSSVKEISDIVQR
For the next data set, the system named is nci-H460. Briefly: 72-h MTT cytotoxicity assay nci-H460. The data set is classed as cell-based. To be noted: Homo sapiens, NCI-H460, 72 h; Table 5; Lung. The procedure: (§2) MTT cytotoxicity assay. […] Standard 72-h MTT (thiazolyl blue; 3-[4,5-dimethylthiazol-2-yl]-2,5-diphenyltetrazolium bromide) assays were performed (Haselsberger, K.; Peterson, D. C.; Thomas, D. G.; Darling, J. L. Anti Cancer Drugs 1996, 7, 331-8; Loveland, B. E.; Johns, T. G.; Mackay, I. R.; Vaillant, F.; Wang, Z. X.; Hertzog, P. J. Biochemistry International 1992, 27, 501-10). In short: cells were seeded into 96-well plates according to doubling time and incubated overnight at 37° C. Test compounds were made up in DMSO and a 1/3 dilution series prepared in 100 μL cell media, added to cells (in triplicates) and incubated for 72 ho at 37° C. MTT was made up as a stock of 5 mg/mL in cell media and filter-sterilised. Media was removed from cells followed by a wash with 200 μL PBS.
(§3) MTT solution was then added at 20 μL per well and incubated in the dark at 37° C. for 4 h. MTT solution was removed and cells again washed with 200 μL PBS. MTT dye was solubilised with 200 μL per well of DMSO with agitation.
In general terms: Formazan colour is commonly taken as a measure of viable cells.

The subject of a further data set is all transformed cells. The data set can be described thus: 72-h MTT cytotoxicity assay, summary over all transformed cells. It is filed as cell-based. To be noted: Homo sapiens. The procedure: as §2, §3
In a further data set the test system is Hela. Briefly: 72-h MTT cytotoxicity assay Hela. It is filed as cell-based. The settings on record: Homo sapiens, Table 5, Cervix. The procedure:
as §2, §3

For the next data set, the system named is Messa. Briefly: 72-h MTT cytotoxicity assay Messa. The data set is classed as cell-based. To be noted: Homo sapiens, MES-SA, Table 5, Uterine. The method, then: as §2, §3
Another data set deals with Hacat. Briefly: 72-h MTT cytotoxicity assay Hacat. It is filed as cell-based. To be noted: Homo sapiens, Table 5, Skin keratinocytes. The procedure: as §2, §3
In another data set the target is CDK2/cyclin E (Homo sapiens, UniProt P24941). The data set can be described thus: Kinase assay CDK2/cyclin E. It is filed as biochemical. The procedure, abridged:
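Enzyme + substrate in β-glycerophosphate/MOPS/EGTA/DTT buffer, pH 7.4 → Mg/ATP (100 μM ATP, γ-32P) start → 30° C incubation → ice stop → P81 or GF/C filtration, H3PO4 wash → scintillation count.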

[7] abbreviates: Table 5, average over transformed cell lines, read-out: 72-h MTT IC50 Average (all transformed cells).
The mark [8] stands for this setting: Table 5, median over transformed cell lines, read-out: 72-h MTT IC50 Median (all transformed cells).
Setting [9] is: Table 2, read-out: Kinase Inhibition IC50 CDK2 cyclin E.
The mark [10] stands for this setting: Table 3 selectivity panel, read-out: Kinase specificity IC50 CDK2/E.

Sequence of Akt/PKB (protein kinase B) (P31749 whole entry): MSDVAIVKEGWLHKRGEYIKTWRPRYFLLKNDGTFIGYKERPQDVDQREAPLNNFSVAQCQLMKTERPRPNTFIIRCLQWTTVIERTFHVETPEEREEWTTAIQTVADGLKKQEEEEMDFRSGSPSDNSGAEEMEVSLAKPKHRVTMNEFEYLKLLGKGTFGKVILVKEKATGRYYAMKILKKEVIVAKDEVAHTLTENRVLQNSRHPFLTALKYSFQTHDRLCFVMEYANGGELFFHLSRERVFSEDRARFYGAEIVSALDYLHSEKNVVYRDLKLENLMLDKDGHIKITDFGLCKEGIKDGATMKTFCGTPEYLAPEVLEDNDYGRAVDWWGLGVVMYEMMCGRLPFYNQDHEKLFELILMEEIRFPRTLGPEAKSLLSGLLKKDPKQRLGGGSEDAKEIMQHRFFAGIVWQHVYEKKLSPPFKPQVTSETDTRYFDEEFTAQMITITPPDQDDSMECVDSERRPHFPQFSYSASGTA
Sequence of p70 ribosomal protein S6 kinase (P23443 91-352 limits assumed): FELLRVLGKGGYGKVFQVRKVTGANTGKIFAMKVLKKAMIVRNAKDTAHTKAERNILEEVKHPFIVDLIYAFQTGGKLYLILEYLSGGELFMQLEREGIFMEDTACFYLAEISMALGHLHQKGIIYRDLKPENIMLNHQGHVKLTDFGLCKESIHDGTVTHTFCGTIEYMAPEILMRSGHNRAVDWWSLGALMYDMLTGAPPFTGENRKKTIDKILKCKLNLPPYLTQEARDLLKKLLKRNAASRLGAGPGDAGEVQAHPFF

Take `CNc1nc(C)c(-c2ccnc(Nc3ccc(N4CCOCC4)cc3)n2)s1` [Compound 3, [4-(2-N-Methylamino-4-methyl-thiazol-5-yl)-pyrimidin-2-yl]-(4-morpholinophenyl)-amine]: the CC50 at 7 days in [1] is more than 100 µM. The IC50 in data set [2] is more than 100 µM; in data set [3] it was more than 100 µM; in [4] it was 2.6 µM; in data set [5], more than 100 µM; in [6], 50 µM.
`Cc1nc(N)sc1-c1ccnc(Nc2ccc(N3CCOCC3)cc2)n1` [Compound 1, [4-(2-Amino-4-methyl-thiazol-5-yl)-pyrimidin-2-yl]-(4-morpholin-4-yl-phenyl)-amine]: the CC50 at 7 days in data set [1] amounted to 6.1 µM. For the same compound, the IC50 with nci-H460 turned out to be 200 nM; in the data set with all transformed cells (setting [7]) it was 1100 nM; with all transformed cells (setting [8]) it was 1000 nM; in the data set with Hela, 1800 nM; in the data set on Messa it was 200 nM; in the data set on Hacat, 1100 nM.
`CNc1nc(C)c(-c2ccnc(Nc3ccc(N4CCN(Cc5ccccc5)CC4)cc3)n2)s1` [Compound 11, [4-(4-Benzyl-piperazin-1-yl)-phenyl]-[4-(4-methyl-2-methylamino-thiazol-5-yl)-pyrimidin-2-yl]-amine]: the IC50 in [2] is 56 µM; in the data set on nci-H460 it was 700 nM; in the data set with all transformed cells (setting [7]), 1600 nM; in the data set on all transformed cells (setting [8]) it was 1100 nM; in data set [3] it was more than 100 µM; with Hela, 6200 nM. Besides, the IC50 in data set [4] is more than 100 µM; with Messa it was 100 nM; in data set [5], more than 100 µM; on CDK2/cyclin E (setting [9]) it was 260 nM; at CDK2/cyclin E (setting [10]) it was 260 nM; in data set [6] it was 72 µM. Moreover, the IC50 in the data set with Hacat turned out to be 1000 nM.
Consider `CCNc1nc(C)c(-c2ccnc(Nc3ccc(N4CCOCC4)cc3)n2)s1` [Compound 4, [4-(2-Ethylamino-4-methyl-thiazol-5-yl)-pyrimidin-2-yl]-(4-morpholin-4-yl-phenyl)-amine], for which the CC50 at 7 days in data set [1] stood at 9.4 µM.
Take `Cc1nc(NC(=O)[C@H](N)[C@@H](C)O)sc1-c1ccnc(Nc2cccc([N+](=O)[O-])c2)n1` [Compound 15, (2R,3R)-2-Amino-3-hydroxy-N-{4-methyl-5-[2-(3-nitro-phenylamino)-pyrimidin-4-yl]-thiazol-2-yl}-butyramide]: the CC50 at 7 days in data set [1] came to 2.4 µM. The IC50 in [2] is 3.9 µM; with nci-H460 it was 1200 nM; in the data set on all transformed cells (setting [7]), 1200 nM; in the data set with all transformed cells (setting [8]), 900 nM; in data set [3], more than 100 µM; in the data set with Hela, 700 nM. The IC50 was more than 100 µM in data set [4]; 900 nM with Messa; more than 100 µM in data set [5]; 130 nM on CDK2/cyclin E (setting [9]); 150 nM at CDK2/cyclin E (setting [10]); 0.76 µM in [6]. This compound returned an IC50 in the data set on Hacat of 1500 nM.
On to `Cc1nc(C)c(-c2ccnc(Nc3ccc(NC(=O)CN4CCCC4)cc3)n2)s1` [Compound 53, N-{4-[4-(2,4-Dimethyl-thiazol-5-yl)-pyrimidin-2-ylamino]-phenyl}-2-pyrrolidin-1-yl-acetamide], for which the CC50 at 7 days in [1] turned out to be 1.6 µM. Moreover, the IC50 on CDK2/cyclin E (setting [9]) turned out to be 520 nM.
In the case of `CC[C@@H](N)C(=O)Nc1nc(C)c(-c2ccnc(Nc3cccc([N+](=O)[O-])c3)n2)s1` [Compound 16, (2R)-2-Amino-N-{4-methyl-5-[2-(3-nitro-phenylamino)-pyrimidin-4-yl]-thiazol-2-yl}-butyramide], the IC50 in data set [2] is 11 µM; in the data set with nci-H460, 300 nM; in the data set on all transformed cells (setting [7]) it was 600 nM; in the data set with all transformed cells (setting [8]) it was 400 nM; in data set [3] it was more than 100 µM; with Hela, 400 nM. Further, the IC50 is 8 µM in data set [4]; 400 nM with Messa; more than 100 µM in data set [5]; 320 nM at CDK2/cyclin E (setting [9]); 350 nM at CDK2/cyclin E (setting [10]); 1.5 µM in data set [6]. In the data set on Hacat, this compound registered an IC50 of 1100 nM.
